In patent US20250353864A1, “INDAZOLE CONTAINING MACROCYCLES AND THEIR USE” (BLOSSOMHILL THERAPEUTICS, INC., priority 2022, published 2025):

Tests used:
Type in all cases: biochemical
[1] = target: EGFR Δ746-750 mutant (Homo sapiens (Human), UniProt P00533, DEL746-750); test: HotSpot radiometric kinase assay, EGFR Δ746-750 mutant; conditions: 10 μM ATP
In short: (§1)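 10 μM ATP (33P-labelled, final); 120 min RT; P81 filter capture, 0.75% phosphoric acid washes. Cpd preincubated ~20 min with enzyme/substrate, 20 mM Hepes pH 7.5, 10 mM MgCl2, 1% DMSO. IC50 by curve fit.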

[2] = target: EGFR WT (Homo sapiens (Human), UniProt P00533); test: HotSpot radiometric kinase assay (Reaction Biology), EGFR WT; conditions: 10 μM ATP
In short: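 IC50 values derive from curve fits of 33P incorporation measured by P81 filter binding. ATP was 10 μM final; incubation lasted 120 min at room temperature after ~20 min compound preincubation.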

[3] = target: EGFR L858R mutant (Homo sapiens (Human), UniProt P00533, L858R); test: HotSpot radiometric kinase assay, EGFR L858R mutant; conditions: 10 μM ATP
Sequence of EGFR L858R mutant (P00533 25-1210 L858R): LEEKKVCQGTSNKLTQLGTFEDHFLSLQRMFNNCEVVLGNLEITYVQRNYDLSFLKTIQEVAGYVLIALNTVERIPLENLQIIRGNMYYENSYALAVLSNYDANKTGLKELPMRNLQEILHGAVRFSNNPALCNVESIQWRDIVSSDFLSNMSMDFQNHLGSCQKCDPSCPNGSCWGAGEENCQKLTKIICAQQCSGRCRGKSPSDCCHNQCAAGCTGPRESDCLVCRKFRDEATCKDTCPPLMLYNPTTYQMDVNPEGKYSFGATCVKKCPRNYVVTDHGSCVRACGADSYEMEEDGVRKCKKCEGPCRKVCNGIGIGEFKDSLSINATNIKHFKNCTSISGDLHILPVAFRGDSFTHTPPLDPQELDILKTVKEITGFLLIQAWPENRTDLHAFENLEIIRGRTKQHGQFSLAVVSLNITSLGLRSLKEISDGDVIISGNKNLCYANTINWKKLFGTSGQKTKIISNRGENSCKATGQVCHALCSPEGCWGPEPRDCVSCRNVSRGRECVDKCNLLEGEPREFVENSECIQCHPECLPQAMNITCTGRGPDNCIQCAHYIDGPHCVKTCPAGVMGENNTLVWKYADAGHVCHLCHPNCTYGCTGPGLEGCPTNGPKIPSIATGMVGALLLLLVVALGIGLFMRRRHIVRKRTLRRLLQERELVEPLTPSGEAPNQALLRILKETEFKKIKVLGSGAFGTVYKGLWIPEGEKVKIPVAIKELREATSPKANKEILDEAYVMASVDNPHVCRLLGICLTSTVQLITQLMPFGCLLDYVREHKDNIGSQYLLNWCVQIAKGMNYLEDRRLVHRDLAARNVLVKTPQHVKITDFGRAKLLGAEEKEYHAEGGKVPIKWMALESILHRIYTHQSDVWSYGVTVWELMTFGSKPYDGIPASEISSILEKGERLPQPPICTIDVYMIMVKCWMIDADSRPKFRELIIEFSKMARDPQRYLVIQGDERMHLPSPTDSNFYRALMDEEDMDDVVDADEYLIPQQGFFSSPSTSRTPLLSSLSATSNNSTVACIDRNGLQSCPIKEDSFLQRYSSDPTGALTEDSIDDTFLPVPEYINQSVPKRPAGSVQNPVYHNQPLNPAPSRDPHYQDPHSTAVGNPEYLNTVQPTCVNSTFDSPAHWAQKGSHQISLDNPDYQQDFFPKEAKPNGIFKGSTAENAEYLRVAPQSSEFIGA
In short: as §1

[4] = target: EGFR Δ746-750/C797S mutant (Homo sapiens (Human), UniProt P00533, C797S/DEL746-750); test: HotSpot radiometric kinase assay, EGFR Δ746-750/C797S mutant; conditions: 10 μM ATP
Sequence of EGFR Δ746-750/C797S mutant (P00533 other isoform, or with tags, fused parts or gaps C797S/del 1-668/del 746-750 limits assumed): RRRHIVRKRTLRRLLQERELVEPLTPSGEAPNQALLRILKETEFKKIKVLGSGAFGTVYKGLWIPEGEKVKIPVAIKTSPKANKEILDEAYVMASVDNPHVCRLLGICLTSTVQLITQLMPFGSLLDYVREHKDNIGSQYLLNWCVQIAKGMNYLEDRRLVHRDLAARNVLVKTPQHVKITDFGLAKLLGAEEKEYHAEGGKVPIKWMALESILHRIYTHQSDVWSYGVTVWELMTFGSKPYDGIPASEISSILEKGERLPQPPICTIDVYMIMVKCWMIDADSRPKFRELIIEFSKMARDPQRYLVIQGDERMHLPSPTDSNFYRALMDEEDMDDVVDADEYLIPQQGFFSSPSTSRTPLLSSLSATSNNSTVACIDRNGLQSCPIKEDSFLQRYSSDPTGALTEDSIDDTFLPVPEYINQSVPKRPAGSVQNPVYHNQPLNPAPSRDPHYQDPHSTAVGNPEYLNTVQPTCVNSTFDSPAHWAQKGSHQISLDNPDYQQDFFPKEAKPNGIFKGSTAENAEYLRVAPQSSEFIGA
In short: as §1

[5] = target: EGFR L858R/T790M/C797S mutant (Homo sapiens (Human), UniProt P00533, C797S/L858R/T790M); test: HotSpot radiometric kinase assay, EGFR L858R/T790M/C797S mutant; conditions: 10 μM ATP
Sequence of EGFR L858R/T790M/C797S mutant (P00533 25-1210 T790M/C797S/L858R): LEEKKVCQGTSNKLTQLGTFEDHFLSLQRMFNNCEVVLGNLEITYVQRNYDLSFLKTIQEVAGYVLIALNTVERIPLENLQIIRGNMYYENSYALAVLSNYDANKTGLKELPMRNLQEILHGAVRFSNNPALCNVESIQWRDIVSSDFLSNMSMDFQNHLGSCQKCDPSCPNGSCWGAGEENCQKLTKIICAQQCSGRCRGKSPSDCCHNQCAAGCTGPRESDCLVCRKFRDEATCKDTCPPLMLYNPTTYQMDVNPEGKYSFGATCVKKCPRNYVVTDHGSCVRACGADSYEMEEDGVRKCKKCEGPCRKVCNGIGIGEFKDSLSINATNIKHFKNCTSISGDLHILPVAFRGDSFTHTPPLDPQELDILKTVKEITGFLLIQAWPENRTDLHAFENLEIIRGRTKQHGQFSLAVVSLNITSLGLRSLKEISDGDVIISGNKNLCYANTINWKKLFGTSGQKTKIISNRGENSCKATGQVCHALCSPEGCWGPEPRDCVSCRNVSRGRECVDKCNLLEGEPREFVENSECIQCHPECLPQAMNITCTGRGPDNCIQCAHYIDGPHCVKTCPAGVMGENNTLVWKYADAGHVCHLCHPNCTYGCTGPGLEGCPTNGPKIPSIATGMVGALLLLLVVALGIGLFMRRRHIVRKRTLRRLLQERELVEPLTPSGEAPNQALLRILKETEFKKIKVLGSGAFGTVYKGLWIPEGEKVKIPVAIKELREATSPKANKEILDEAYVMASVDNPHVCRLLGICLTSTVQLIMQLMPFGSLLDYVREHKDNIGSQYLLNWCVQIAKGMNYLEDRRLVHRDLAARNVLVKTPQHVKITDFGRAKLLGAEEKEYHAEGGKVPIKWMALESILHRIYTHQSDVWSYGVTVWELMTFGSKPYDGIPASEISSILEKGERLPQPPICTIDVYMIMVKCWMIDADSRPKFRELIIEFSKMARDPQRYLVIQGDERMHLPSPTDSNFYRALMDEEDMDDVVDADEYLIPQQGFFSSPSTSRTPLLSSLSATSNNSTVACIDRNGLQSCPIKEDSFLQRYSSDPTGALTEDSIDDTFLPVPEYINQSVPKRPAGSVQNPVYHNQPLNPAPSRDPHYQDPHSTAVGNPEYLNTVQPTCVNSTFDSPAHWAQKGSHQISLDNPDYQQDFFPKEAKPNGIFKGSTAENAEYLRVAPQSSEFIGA
In short: as §1

[6] = target: EGFR L858R/T790M mutant (Homo sapiens (Human), UniProt P00533, L858R/T790M); test: HotSpot radiometric kinase assay, EGFR L858R/T790M mutant; conditions: 10 μM ATP
Sequence of EGFR L858R/T790M mutant (P00533 25-1210 T790M/L858R): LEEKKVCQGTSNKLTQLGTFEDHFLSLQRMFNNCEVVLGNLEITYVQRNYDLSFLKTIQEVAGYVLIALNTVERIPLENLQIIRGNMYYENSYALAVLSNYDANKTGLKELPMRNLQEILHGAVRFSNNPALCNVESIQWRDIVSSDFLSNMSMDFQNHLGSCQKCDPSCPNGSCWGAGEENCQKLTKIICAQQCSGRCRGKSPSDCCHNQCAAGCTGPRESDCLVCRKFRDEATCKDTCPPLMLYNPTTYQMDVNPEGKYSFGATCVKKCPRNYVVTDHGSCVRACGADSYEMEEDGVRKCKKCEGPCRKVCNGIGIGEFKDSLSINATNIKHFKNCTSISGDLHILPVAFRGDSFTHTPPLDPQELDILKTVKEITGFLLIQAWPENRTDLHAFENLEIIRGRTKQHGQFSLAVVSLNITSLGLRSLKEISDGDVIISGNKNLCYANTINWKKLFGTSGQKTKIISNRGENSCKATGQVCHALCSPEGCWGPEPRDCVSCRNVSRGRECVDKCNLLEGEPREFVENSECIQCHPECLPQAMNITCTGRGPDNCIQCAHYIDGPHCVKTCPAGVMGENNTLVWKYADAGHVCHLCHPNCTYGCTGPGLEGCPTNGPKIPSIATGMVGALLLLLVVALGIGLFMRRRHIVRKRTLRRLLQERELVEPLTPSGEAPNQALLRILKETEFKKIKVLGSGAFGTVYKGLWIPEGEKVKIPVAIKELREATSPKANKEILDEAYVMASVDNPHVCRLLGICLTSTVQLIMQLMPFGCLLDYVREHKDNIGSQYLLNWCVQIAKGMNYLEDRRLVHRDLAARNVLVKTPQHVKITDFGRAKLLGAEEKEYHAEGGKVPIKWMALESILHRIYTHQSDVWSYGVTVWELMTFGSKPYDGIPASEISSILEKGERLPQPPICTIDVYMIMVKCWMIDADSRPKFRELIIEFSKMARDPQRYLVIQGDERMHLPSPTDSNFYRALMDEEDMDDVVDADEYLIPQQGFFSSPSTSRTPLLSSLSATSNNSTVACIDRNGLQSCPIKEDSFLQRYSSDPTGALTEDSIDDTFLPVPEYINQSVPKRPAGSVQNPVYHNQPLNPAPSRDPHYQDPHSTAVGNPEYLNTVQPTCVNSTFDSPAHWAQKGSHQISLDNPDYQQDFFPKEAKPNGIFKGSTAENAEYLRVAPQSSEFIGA
Protocol: Biochemical Assays for Inhibition of Wild-Type and Mutant EGFRs
Briefly, specific kinase/substrate pairs along with required cofactors were prepared in reaction buffer; 20 mM Hepes pH 7.5, 10 mM […], 1 mM EGTA, 0.02% Brij35, 0.02 mg/ml BSA, 0.1 mM Na3VO4, 2 mM DTT, 1% DMSO. Compounds were delivered into the reaction, followed […] later by addition of a mixture of ATP (Sigma, St. Louis MO) and ^33P ATP (Perkin Elmer, Waltham MA) to a final concentration of 10 μM. Reactions were carried out at room temperature for 120 min, followed by spotting of the reactions onto P81 ion exchange filter paper (Whatman Inc., Piscataway, NJ). Unbound phosphate was removed by extensive washing of filters in 0.75% phosphoric acid. […] IC50 values and curve fits were obtained using Prism (GraphPad Software).

[7] = target: EGFR (D770_N771insNPG) (Homo sapiens (Human), UniProt P00533, INS770NPG); test: HotSpot radiometric kinase assay, EGFR (D770_N771insNPG); conditions: 10 μM ATP, read-out: EGFR (Δ770_N771insNPG) IC50
In short: as §1

Sequence of EGFR Δ746-750 mutant (P00533 other isoform, or with tags, fused parts or gaps del 1-668/del 746-750 limits assumed): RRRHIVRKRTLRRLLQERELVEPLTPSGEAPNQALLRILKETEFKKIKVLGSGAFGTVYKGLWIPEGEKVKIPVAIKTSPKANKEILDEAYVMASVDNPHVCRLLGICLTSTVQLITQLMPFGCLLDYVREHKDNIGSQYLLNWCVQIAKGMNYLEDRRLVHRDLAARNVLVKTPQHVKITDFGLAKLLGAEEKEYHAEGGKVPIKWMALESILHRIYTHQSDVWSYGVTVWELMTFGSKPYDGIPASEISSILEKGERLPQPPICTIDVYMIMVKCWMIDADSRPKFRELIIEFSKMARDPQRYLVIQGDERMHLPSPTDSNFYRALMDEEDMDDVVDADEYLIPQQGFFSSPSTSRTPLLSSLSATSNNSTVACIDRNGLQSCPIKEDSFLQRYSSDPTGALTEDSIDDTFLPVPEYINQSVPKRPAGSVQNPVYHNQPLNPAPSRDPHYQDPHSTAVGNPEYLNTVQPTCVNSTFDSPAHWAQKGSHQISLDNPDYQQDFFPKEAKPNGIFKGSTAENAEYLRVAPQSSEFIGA

Cc1nn(C)c2c1/C=C/c1n[nH]c3ccc(cc13)-c1cnn(C)c1OCCN(C)C(=O)CO2 [Example 63, (19E)-8,12,16,18-tetramethyl-2,11,12,16-tetrahydro-8H,10H-3,5-ethenotripyrazolo[3,4-h:3′,4′-l:4″,3″- p][1,7,4]dioxazacycloheptadecin-13(14H)-one] gave an IC50 [1] of 296 nM, an IC50 [2] of 782 nM and an IC50 [3] of 828 nM. For the same molecule, the IC50 [4] was 228 nM, the IC50 [5] was 33.5 nM and the IC50 [6] was 43.3 nM. For the same molecule, the IC50 [7] was > 1000 nM.

Cc1nn(CCO)c2c1/C=C/c1n[nH]c3ccc(cc13)-c1c(C)nn(C)c1O[C@@H](C)CN(C)C2 [Example 138, 2-[(10S,17E)-6,8,10,12,16-pentamethyl-2,8,10,11,12,13-hexahydro-14H-3,5-ethenotripyrazolo[3,4-f:3′,4′-j:4″,3″-n][1,4]oxazacyclopentadecin-14-yl]ethan-1-o] was tested, and the IC50 [1] was 3.64 nM, the IC50 [2] was 23.8 nM and the IC50 [3] was 3.5 nM. The IC50 [4] was 1.4 nM, the IC50 [5] was 0.55 nM and the IC50 [6] was 0.61 nM. It also gave an IC50 [7] of 85.2 nM.

COCc1nn(C)c2c1/C=C/c1n[nH]c3ccc(cc13)-c1cnn(C)c1OCCCO2 [Ex. 11, (17E)-16-(methoxymethyl)-8,14-dimethyl-2,11,12,14-tetrahydro-8H,10H-3,5-etheno[1,5]dioxacyclopentadecino[10,11-c:15,14-c′:6,7-c″]tripyrazole] was tested, and the IC50 [1] was 850 nM, the IC50 [2] was > 1000 nM and the IC50 [3] was 1580 nM. It also gave an IC50 [4] of 798 nM, an IC50 [5] of 218 nM and an IC50 [6] of 153 nM. For the same molecule, the IC50 [7] was > 1000 nM.

In the case of Cc1nn(CCO)c2c1/C=C/c1n[nH]c3ccc(cc13)-c1cnn(C)c1OC(C1CCC1)CN(C)C2 (stereo not drawn) [Example 152, 2-[(17E)-10-cyclobutyl-8,12,16-trimethyl-2,8,10,11,12,13-hexahydro-14H-3,5-ethenotripyrazolo[3,4-f:3′,4′-j:4″,3″-n][1,4]oxazacyclopentadecin-14-yl]ethan-1-ol], the IC50 [1] is reported as 61.5 nM, the IC50 [2] is reported as 112 nM and the IC50 [3] is reported as 20.7 nM. For the same molecule, the IC50 [4] was 86.4 nM, the IC50 [5] was 0.62 nM and the IC50 [6] was 0.58 nM. The IC50 [7] was 94.5 nM.

Molecule Cc1nn(C)c2c1/C=C/c1n[nH]c3ccc(cc13)-c1cnn(C)c1O[C@@H](C)CN(C1COC1)C2 [Example 140, (10S,17E)-8,10,14,16-tetramethyl-12-(oxetan-3-yl)-2,10,11,12,13,14-hexahydro-8H-3,5-ethenotripyrazolo[3,4-f:3′,4′-j:4″,3″-n][1,4]oxazacyclopentadecine] has an IC50 [1] of 9.35 nM, an IC50 [2] of 84.8 nM and an IC50 [3] of 11.6 nM. For the same molecule, the IC50 [4] was 6.14 nM, the IC50 [5] was 1.3 nM and the IC50 [6] was 1.19 nM. It also gave an IC50 [7] of 186 nM.

CCOC(=O)Cn1nc(OCC)c2c1CN(CC)C[C@H](C)Oc1c(cnn1C)-c1ccc3[nH]nc(c3c1)/C=C/2 [Example 218, ethyl [(10S,17E)-16-ethoxy-12-ethyl-8,10-dimethyl-2,8,10,11,12,13-hexahydro-14H-3,5-ethenotripyrazolo[3,4-f:3′,4′-j:4″,3″-n][1,4]oxazacyclopentadecin-14-yl]acetate] gave an IC50 [1] of 8.48 nM, an IC50 [2] of 119 nM and an IC50 [3] of 28.8 nM. For the same molecule, the IC50 [4] was 16.6 nM, the IC50 [5] was 2.04 nM and the IC50 [6] was 1.99 nM. The IC50 [7] was 161 nM.

CCOc1nn(CCO)c2c1/C=C/c1n[nH]c3cc(F)c(cc13)-c1c(C)nn(C)c1O[C@@H](C)CN(C(C)C)C2 [Example 239, 2-[(10S,17E)-16-ethoxy-19-fluoro-6,8,10-trimethyl-12-(propan-2-yl)-2,8,10,11,12,13-hexahydro-14H-3,5-ethenotripyrazolo[3,4-f:3′,4′-j:4″,3″-n][1,4]oxazacyclopentadecin-14-yl]ethan-1-ol] gave an IC50 [1] of 18.3 nM, an IC50 [2] of 62.1 nM and an IC50 [3] of 30.5 nM. For the same molecule, the IC50 [4] was 9.44 nM, the IC50 [5] was 8.44 nM and the IC50 [6] was 36.4 nM. For the same molecule, the IC50 [7] was 527 nM.

CCN1Cc2c(c(C)nn2CCO)/C=C/c2n[nH]c3ccc(cc23)-c2cnn(C)c2O[C@@H](C)C1 [Example 133, v2-[(10S,17E)-12-ethyl-8,10,16-trimethyl-2,8,10,11,12,13-hexahydro-14H-3,5-ethenotripyrazolo[3,4-f:3′,4′-j:4″,3″-n][1,4]oxazacyclopentadecin-14-yl]ethan-1-ol] was tested, and the IC50 [1] was 0.12 nM, the IC50 [2] was 0.54 nM and the IC50 [3] was 0.09 nM. It also gave an IC50 [4] of 0.35 nM, an IC50 [5] of 0.24 nM and an IC50 [6] of 0.07 nM. The IC50 [7] was 1.62 nM.

Work on Cc1nn(CCN2CCCC2)c2c1/C=C/c1n[nH]c3ccc(cc13)-c1cnn(C)c1C(C)OCCO2 (stereo not drawn) [Example 100, (17E)-8,9,16-trimethyl-14-[2-(pyrrolidin-1-yl)ethyl]-2,8,9,11,12,14-hexahydro-3,5-etheno[1,4]dioxacyclopentadecino[11,10-c:15,14-c′:6,7-c″]tripyrazole] yielded an IC50 [1] of 198 nM, an IC50 [2] of 290 nM and an IC50 [3] of 87.7 nM. It also gave an IC50 [4] of 91 nM, an IC50 [5] of 19.2 nM and an IC50 [6] of 10.4 nM. The IC50 [7] was 250 nM.

C[C@H]1CN(C)Cc2nn3c(c2/C=C/c2n[nH]c4ccc(cc24)-c2cnn(C)c2O1)CN(CCS(C)(=O)=O)CC3 [Example 166, (10S,20E)-18-[2-(methanesulfonyl)ethyl]-8,10,12-trimethyl-2,8,10,11,12,13,16,17,18,19-decahydro-3,5-ethenopyrazino[1′,2′:1,5]pyrazolo [3,4-f]dipyrazolo[3,4-j:4′,3′-n][1,4]oxazacyclopentadecine] showed an IC50 [1] of 15 nM, an IC50 [2] of 99.8 nM and an IC50 [3] of 12.8 nM. It also gave an IC50 [4] of 8.1 nM, an IC50 [5] of 0.55 nM and an IC50 [6] of 0.72 nM. For the same molecule, the IC50 [7] was 45.6 nM.

In the case of Cc1c2c(nn1[C@H]1CCNC[C@@H]1O)OCCCOc1c(cnn1C)-c1ccc3[nH]nc(c3c1)/C=C/2 (racemic) [Example 81, (rac)-4-[(17E)-8,16-dimethyl-2,8,11,12-tetrahydro-10H,15H-3,5-etheno[1,5]dioxacyclopentadecino[10,11-c:15,14-c′:6,7-c″ ]tripyrazol-15-yl]piperidin-3-ol], the IC50 [1] is reported as 29.6 nM, the IC50 [2] is reported as 43.8 nM and the IC50 [3] is reported as 16.8 nM. The IC50 [4] was 33.4 nM, the IC50 [5] was 7.42 nM and the IC50 [6] was 1.7 nM. The IC50 [7] was 40.3 nM.

For C[C@H]1CN(C)Cc2c(c(OC3CN(S(C)(=O)=O)C3)nn2CCO)/C=C/c2n[nH]c3ccc(cc23)-c2cnn(C)c2O1 [Example 221, 2-[(10S,17E)-16-{[1-(methanesulfonyl)azetidin-3-yl]oxy}-8,10,12-trimethyl-2,8,10,11,12,13-hexahydro-14H-3,5-ethenotripyrazolo[3,4-f:3′,4′-j:4″,3″-n][1,4]oxazacyclopentadecin-14-yl]ethan-1-ol], the IC50 [1] was 0.55 nM, the IC50 [2] was 4.14 nM and the IC50 [3] was 0.97 nM. It also gave an IC50 [4] of 0.35 nM, an IC50 [5] of 0.14 nM and an IC50 [6] of 0.21 nM. The IC50 [7] was 10.3 nM.

With Cc1nn([C@H]2CN(C)C[C@@H]2O)c2c1/C=C/c1n[nH]c3ccc(cc13)-c1cnn(C)c1CN(C)CCO2 (racemic) [Example 98, (rac)-(3S,4S)-1-methyl-4-[(17E)-8,10,16-trimethyl-2,8,9,10,11,12-hexahydro-14H-3,5-ethenotripyrazolo[3,4-f:4′,3′-j:4″,3″-n][1,4]oxazacyclopentadecin-14-yl]pyrrolidin-3-ol] the IC50 [1] was 84.9 nM, the IC50 [2] was 119 nM and the IC50 [3] was 41.1 nM. For the same molecule, the IC50 [4] was 27 nM, the IC50 [5] was 12.1 nM and the IC50 [6] was 3.56 nM. The IC50 [7] was 148 nM.

With Cc1nn(C)c2c1-c1ccc3[nH]nc(c3c1)/C=C/c1c(OC(C)C)nn(CCO)c1CN(C(C)C)C[C@@H](C)O2 [Example 202, 2-{(10R,17E)-6,8,10-trimethyl-12-(propan-2-yl)-16-[(propan-2-yl)oxy]-2,8,10,11,12,13-hexahydro-14H-3,5-ethenotripyrazolo[3,4-f:3′,4′-j:4″,3″-n][1,4]oxazacyclopentadecin-14-yl}ethan-1-ol] the IC50 [1] was 45 nM, the IC50 [2] was 179 nM and the IC50 [3] was 98.8 nM. The IC50 [4] was 20.7 nM, the IC50 [5] was 2 nM and the IC50 [6] was 3.38 nM. For the same molecule, the IC50 [7] was 423 nM.

Cc1nn(C2CCN(C)C2)c2c1/C=C/c1n[nH]c3ccc(cc13)-c1cnn(C)c1CN(C)CCO2 (stereo not drawn) [Example 118, (17E)-8,10,16-trimethyl-14-(1-methylpyrrolidin-3-yl)-2,9,10,11,12,14-hexahydro-8H-3,5-ethenotripyrazolo[3,4-f:4′,3′-j:4″,3″-n][1,4]oxazacyclopentadecine] showed an IC50 [1] of 21.1 nM, an IC50 [2] of 130 nM and an IC50 [3] of 34.4 nM. The IC50 [4] was 31.7 nM, the IC50 [5] was 8.42 nM and the IC50 [6] was 4.65 nM. For the same molecule, the IC50 [7] was 65.7 nM.
